Converted amounts (≈) assume the structure as drawn. Read-outs that look alike come from different tables or passages of the source.
Assays:
[1] = target: T1, protein-protein interaction between SOS1 and KRAS G12C (Homo sapiens, UniProt P01116, C118S/C51S/C80L/G12C); assay: KRAS::SOS1 AlphaScreen Binding Assay; conditions: Table 20, compounds (I); 7.5 nM KRAS G12C, 10 μM GDP, 5 nM GST-SOS1
T1 construct: His6 (N); SOS1: in-house or Viva Biotech Ltd; host or cells: E. coli (KRAS)
From the text: This assay can be used to examine the potency with which compounds according to the invention binding to KRAS G12C inhibit the protein-protein interaction between SOS1 and KRAS G12C. […] Low IC50 values in this assay setting are indicative of strong inhibition of protein-protein interaction between SOS1 and KRAS:
• GST-tagged SOS1 (564_1049_GST_TEV_ECO) produced in-house • GST-TEV-SOS1 (564-1049) is purchased from Viva Biotech Ltd. • The expression construct of KRAS G12C (amino acids 1-169 of reference sequence P01116-2 (uniprot), with additional mutations: C51S, C80L, and C118S) containing a C-terminal avi-tag was obtained by gene synthesis (GeneArt, Thermo Fisher) in donor vector (pDONR-221) and transferred by recombinant cloning into pDEST17 vector bearing an N-terminal His6-tag. The protein was expressed in E. coli and the purified protein was biotinylated with the E. coli biotin ligase (BirA) before usage. • GDP (Sigma Cat No G7127) • AlphaLISA Glutathione Acceptor Beads (PerkinElmer, Cat No AL109) • AlphaScreen Streptavidin Donor Beads (PerkinElmer Cat No 6760002) • Assay plates: Proxiplate-384 PLUS, white (PerkinElmer, Cat No 6008289)
7.5 nM (final assay concentration) KRAS G12C, 10 μM (final assay concentration) GDP and 5 nM (final assay concentration) GST-SOS1 are mixed in assay buffer prior to use and kept at room temperature.
AlphaLISA Glutathione Acceptor Beads and AlphaScreen Streptavidin Donor Beads are mixed in assay buffer at a concentration of 10 μg/mL (final assay concentration) each prior to use and kept at room temperature.
Compounds are diluted to a final start concentration of 100 μM and are tested in duplicate. Assay-ready plates (ARPs) are generated using an Access Labcyte Workstation with a Labcyte Echo 550 or 555 acoustic dispenser. For compound a start concentration of 100 μM, 150 nL of compound solution is transferred per well in 11 concentrations in duplicate with serial 1:5 dilutions.
The assay is run using a fully automated robotic system in a darkened room below 100 Lux. 10 μL of KRAS::SOS1 GDP mix is added into columns 1-24 to the 150 nL of compound solution (final dilution in the assay 1:100, final DMSO concentration 1%).
After 30 minutes incubation time 5 μL of bead mix is added into columns 1-23. Plates are kept at room temperature in a darkened incubator. After further 60 minutes incubation, the signal is measured using a PerkinElmer Envision HTS Multilabel Reader using the AlphaScreen specifications from PerkinElmer. Each plate contains the following controls: • diluted DMSO+KRAS::SOS1 GDP mix+bead mix • diluted DMSO+KRAS::SOS1 GDP mix
IC50 values are calculated and analyzed using a 4 parametric logistic model.
Tables of example compounds disclosed herein contain IC50 values determined using the above assay.

[2] = tested on: pERK (Thr202/Tyr204) in NCI-H358 cells (KRAS G12C mutation); assay: ERK phosphorylation assay (assay 1, NCI-H358); format: cell-based; conditions: Homo sapiens; NCI-H358 (assay 1), 1 h compound incubation
From the text: Low IC50 values in this assay setting are indicative of high potency of the compounds according to the invention. […]
• RPMI-1640 Medium (ATCC® 30-2001™) • Fetal Bovine Serum (FBS) from HyClone (SH30071.03) • Non-essential amino acids from Thermo Fischer Scientific (11140035) • Pyruvate from Thermo Fischer Scientific (11360039) • Glutamax from Thermo Fischer Scientific (35050061) • 384 plates from Greiner Bio-One (781182) • Proxiplate™ 384 from PerkinElmer Inc. (6008280) • AlphaLISA SureFire Ultra p-ERK1/2 (Thr202/Tyr204) Assay Kit (ALSU-PERK-A500) EGF from Sigma (E4127) • Acceptor Mix: Protein A Acceptor Beads from PerkinElmer (6760137M) • Donor Mix: AlphaScreen Streptavidin-coated Donor Beads from PerkinElmer (6760002) • Trametinib • Staurosporine from Sigma Aldrich (S6942)
Cells are seeded at 40,000 cells per well in/60 μL of RPMI with 10% FBS, non-essential amino acids, pyruvate and glutamax in Greiner TC 384 plates. The cells are incubated for 1 h at room temperature and then incubated overnight in an incubator at 37° C. and 5% CO2 in a humidified atmosphere. 60 nL compound solution (10 mM DMSO stock solution) is then added using a Labcyte Echo 550 device. After a 1 h incubation in the aforementioned incubator the medium is removed after centrifugation and the cells lysed by addition of 20 μL of 1.6-fold lysis buffer from the AlphaLISA SureFire Ultra pERK1/2 (Thr202/Tyr204) Assay Kit with added protease inhibitors, 100 nM trametinib+100 nM staurosporine. After 20 minutes of incubation at room temperature with shaking, 6 μL of each lysate sample is transferred to a 384-well Proxiplate and analyzed for pERK (Thr202/Tyr204) with the AlphaLISA SureFire Ultra pERK1/2 (Thr202/Tyr204) Assay Kit. 3 μL Acceptor Mix and 3 μL Donor Mix are added under subdued light and incubated for 2 h at room temperature in the dark, before the signal is measured on a PerkinElmer Envision HTS Multilabel Reader. The raw data were imported into and analyzed with the Boehringer Ingelheim proprietary software MegaLab (curve fitting based on the program PRISM, GraphPad Inc.).
IC50 values of representative compounds (I) according to the invention measured with this assay are presented in table 22 (IC50s from assay 2 are marked with *, all others are from assay 1).

[3] = Solubility measurement (DMSO solution precipitation method); format: physicochemical; conditions: aqueous buffer, kinetic from dmso stock, ambient temperature
Experimental: The DMSO solution is diluted with an aqueous medium (McIlvaine buffer with pH=4.5 or 6.8) to a final concentration of 250 μM. After 24 h of shaking at ambient temperature a potentially formed precipitate is removed by filtration. The concentration of the test compound in the filtrate is determined by LC-UV methods by calibrating the signal to the signal of a reference solution with complete dissolution of the test compound in acetonitrile/water (1:1) with known concentration.
Data obtained with the disclosed assay for a selection of compounds (I) according to the invention: […]

[4] = McIlvaine buffer pH 4.5, 24 h, read-out: Solubility pH 4.5
[5] = McIlvaine buffer pH 6.8, 24 h, read-out: Solubility pH 6.8

T1 sequence (P01116 1-169 isoform P01116-2 G12C/C51S/C80L/C118S): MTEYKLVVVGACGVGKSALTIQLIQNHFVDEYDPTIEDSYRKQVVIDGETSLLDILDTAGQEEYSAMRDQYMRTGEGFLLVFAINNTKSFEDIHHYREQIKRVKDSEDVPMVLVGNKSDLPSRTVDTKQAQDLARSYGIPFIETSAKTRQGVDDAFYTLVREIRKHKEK

IC50 [1] [nM] | IC50 [2] [nM] | solubility at 24 h [3, 4] [µg/mL] | solubility at 24 h [3, 5] [µg/mL] | Structure (SMILES)
1.6 | 8.4 | 125 (≈ 185 µM) | 57 (≈ 84.5 µM) | C=C(F)C(=O)N1[C@@H](C)CN(c2cc(O[C@@H](C)[C@@H]3CCCN3C)nc(-c3onc4c3CCC[C@@]43CCCc4sc(N)c(C#N)c43)n2)C[C@@H]1C [Ia-1]
< 1.5 | 1.1 | > 156 | 126 (≈ 192 µM) | C=CC(=O)N1[C@@H](C)CN(c2cc(O[C@@H](C)[C@@H]3CCCN3C)nc(-c3onc4c3CCC[C@@]43CCCc4sc(N)c(C#N)c43)n2)C[C@@H]1C [Ia-2]
1.6 |  | > 163 | > 160 | C=CC(=O)N1[C@@H](C)CN(c2cc(-c3onc4c3CCC[C@@]43CCCc4sc(N)c(C#N)c43)nc(O[C@@H](C)[C@@H]3CCCN3C)n2)C[C@@H]1C [Ia-4]
1.7 | 4.2 |  |  | C[C@H](Oc1cc(N2C[C@H](C)N(C(=O)/C=C/CF)[C@@H](C)C2)nc(-c2noc3c2CCC[C@@]32CCCc3sc(N)c(C#N)c32)n1)[C@@H]1CCCN1C [Ib-1]
1.5 | 1.3 | 130 (≈ 198 µM) | 121 (≈ 184 µM) | C=CC(=O)N1[C@@H](C)CN(c2cc(O[C@@H](C)[C@@H]3CCCN3C)nc(-c3noc4c3CCC[C@@]43CCCc4sc(N)c(C#N)c43)n2)C[C@@H]1C [Ib-3]
1.4 | 0.4 | > 140 | 129 (≈ 196 µM) | C=CC(=O)N1[C@@H](C)CN(c2cc(-c3noc4c3CCC[C@@]43CCCc4sc(N)c(C#N)c43)nc(O[C@@H](C)[C@@H]3CCCN3C)n2)C[C@@H]1C [Ib-4]
1.6 | 7.7 | 116 (≈ 172 µM) | 40 (≈ 59.3 µM) | C=C(F)C(=O)N1[C@@H](C)CN(c2cc(O[C@@H](C)[C@@H]3CCCN3C)nc(-c3noc4c3CCC[C@@]43CCCc4sc(N)c(C#N)c43)n2)C[C@@H]1C [Ib-5]

Further lines, the compound ahead of its results:

Structure (SMILES) | IC50 [1] [nM] | IC50 [2] [nM] | solubility at 24 h [3, 4] [µg/mL] | solubility at 24 h [3, 5] [µg/mL]
C=C(F)C(=O)N1[C@@H](C)CN(c2cc(-c3onc4c3CCC[C@@]43CCCc4sc(N)c(C#N)c43)nc(O[C@@H](C)[C@@H]3CCCN3C)n2)C[C@@H]1C [Ia-3] | 4 | 16.4 | 116 (≈ 172 µM) | < 1
C=CC(=O)N1CCN(c2cc(O[C@@H](C)[C@@H]3CCCN3C)nc(-c3noc4c3CCC[C@@]43CCCc4sc(N)c(C#N)c43)n2)CC12CC2 [Ib-2] | 1.3 | 1 | 111 (≈ 170 µM) | 77 (≈ 118 µM)
C=C(F)C(=O)N1[C@@H](C)CN(c2cc(-c3noc4c3CCC[C@@]43CCCc4sc(N)c(C#N)c43)nc(O[C@@H](C)[C@@H]3CCCN3C)n2)C[C@@H]1C [Ib-6] | 2.1 | 5.3 | 113 (≈ 167 µM) | 50 (≈ 74.1 µM)
C[C@H](Oc1nc(-c2noc3c2CCC[C@@]32CCCc3sc(N)c(C#N)c32)cc(N2C[C@H](C)N(C(=O)/C=C/CF)[C@@H](C)C2)n1)[C@@H]1CCCN1C [Ib-7] | 3.1 | 4.7 | > 139 | 108 (≈ 157 µM)
C[C@H](Oc1nc(-c2noc3c2CCC[C@@]32CCCc3sc(N)c(C#N)c32)cc(N2C[C@H](C)N(C(=O)/C=C/c3cccnc3)[C@@H](C)C2)n1)[C@@H]1CCCN1C [Ib-8] | 3.2 | 26.9 | 102 (≈ 139 µM) | 13 (≈ 17.7 µM)
COC/C=C/C(=O)N1[C@@H](C)CN(c2cc(-c3noc4c3CCC[C@@]43CCCc4sc(N)c(C#N)c43)nc(O[C@@H](C)[C@@H]3CCCN3C)n2)C[C@@H]1C [Ib-9] | 6.2 | 373 | 83 (≈ 118 µM) | 114 (≈ 163 µM)

From patent US20250296940A1, “ANNULATED 2-AMINO-3-CYANO THIOPHENES AND DERIVATIVES FOR THE TREATMENT OF CANCER” (Boehringer Ingelheim Int'l GmbH Corp., priority 2021, published 2025)
